Test results as given in US6737383B1, “Herbicidal oxadiazolidines” (priority 1999, dated 2004).

Key:
[1] = system: duck salad; experiment: Test B flood test duck salad; type: in vivo, Heteranthera limosa; conditions: Pre-emergence
In short: (§1)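 Flood test on plants grown to the 2-leaf stage; treated plants kept in greenhouse twelve to sixteen days, then visually rated against controls on a 0 (no effect) to 10 (complete control) scale.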

[2] = system: bedstraw; experiment: Test B pre/postemergence bedstraw; type: in vivo, Galium aparine
In short: (§2)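 Response is a visual 0-to-10 score relative to untreated plants, where 0 means no effect and 10 means complete control, taken twelve to sixteen days after application. Treatments went onto soil at planting and onto foliage of 1- to 4-leaf plants, using a surfactant-containing non-phytotoxic solvent.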

[3] = system: blackgrass; experiment: Test B pre/postemergence blackgrass; type: in vivo, Alopecurus myosuroides
In short: as §2

[4] = system: crabgrass; experiment: Test B pre/postemergence crabgrass; type: in vivo, Digitaria sanguinalis
In short: as §2

[5] = system: rice; experiment: Test B flood test rice; type: in vivo, Oryza sativa; conditions: Pre-emergence
In short: as §1

[6] = system: purple nutsedge; experiment: Test B pre/postemergence purple nutsedge; type: in vivo, Cyperus rotundus
In short: as §2

[7] = system: smallflower flatsedge; experiment: Test B flood test smallflower flatsedge; type: in vivo, Cyperus difformis; conditions: Pre-emergence
In short: as §1

[8] = system: giant foxtail; experiment: Test B pre/postemergence giant foxtail; type: in vivo, Setaria faberii
In short: as §2

[9] = system: pigweed; experiment: Test B pre/postemergence pigweed; type: in vivo, Amaranthus retroflexus
In short: as §2

[10] = system: surinam grass; experiment: Test B pre/postemergence surinam grass; type: in vivo, Brachiaria decumbens
In short: as §2

[11] = system: wheat; experiment: Test B pre/postemergence wheat; type: in vivo, Triticum aestivum
In short: as §2

[12] = system: morningglory; experiment: Test B pre/postemergence morningglory; type: in vivo, Ipomoea hederacea
In short: as §2

[13] = system: velvetleaf; experiment: Test B pre/postemergence velvetleaf; type: in vivo, Abutilon theophrasti
In short: as §2

[14] = system: wild oat; experiment: Test B pre/postemergence wild oat; type: in vivo, Avena fatua
In short: as §2

[15] = system: soybean; experiment: Test B pre/postemergence soybean; type: in vivo, Glycine max
In short: as §2

[16] = system: corn; experiment: Test B pre/postemergence corn; type: in vivo, Zea mays
In short: as §2

[17] = Rate 1000 g/ha, scale 0 to 10 (0 no effect, 10 complete control)
[18] = Rate 125 g/ha, flood test species, scale 0 to 10 where 0 is no effect and 10 is complete control
[19] = Rate 250 g/ha, flood-test species, scale 0 to 10, 0 is no effect, 10 is complete control
[20] = Rate 500 g/ha, flood test species, scale 0 to 10 (0 no effect, 10 complete control)
[21] = Preemergence, Rate 62 g/ha, scale of 0 to 10 where 0 is no effect and 10 is complete control
[22] = Rate 62 g/ha, Postemergence, scale 0 to 10 (0 no effect, 10 complete control)
[23] = Rate 125 g/ha, Postemergence, scale of 0 to 10 where 0 is no effect and 10 is complete control
[24] = Rate 250 g/ha, Postemergence, scale of 0 to 10 where 0 is no effect and 10 is complete control
[25] = Preemergence, Rate 250 g/ha, scale of 0 to 10 where 0 is no effect and 10 is complete control
[26] = Preemergence, Rate 500 g/ha, scale of 0 to 10 where 0 is no effect and 10 is complete control
[27] = Rate 500 g/ha, Postemergence, scale 0 to 10, 0 no effect, 10 complete control

How did the “Ducksalad plant response rating” value [1, 17] turn out when `COC(Cn1c(=O)on(C(=O)N(c2ccc(F)cc2)C(C)C)c1=O)OC` [Compound 317] was run?
Its value is 0.

And the “Ducksalad plant response rating” value [1, 18]?
Its value is 0.

And the “Ducksalad plant response rating” value [1, 19]?
The value was 0.

What about the “Ducksalad plant response rating” value [1, 20] of the same molecule?
The value was 0.

And the “Bedstraw plant response rating” value [2, 21]?
Its value is 0.

And the “Bedstraw plant response rating” value [2, 22]?
Its value is 2.

And the “Bedstraw plant response rating” value [2, 23]?
Its value is 6.

And the “Plant response rating, Bedstraw” value [2, 24]?
The value was 8.

What about the “Blackgrass plant response rating” value [3, 21] of the same molecule?
The value was 3.

And the “Blackgrass plant response rating (0 to 10 scale)” value ([3]; Preemergence, Rate 125 g/ha)?
Its value is 8.

And the “Blackgrass plant response rating” value [3, 25]?
The value was 8.

What about the “Blackgrass plant response rating” value [3, 26] of the same molecule?
Its value is 10.

And the “Blackgrass plant response rating” value [3, 22]?
The value was 8.

And the “Blackgrass plant response rating” value [3, 23]?
The value was 8.

What about the “Plant response rating, Blackgrass” value [3, 24] of the same molecule?
The value was 8.

What about the “Blackgrass plant response rating” value [3, 27] of the same molecule?
The value was 9.

And the “Crabgrass plant response rating” value [4, 21]?
The value was 6.

What about the “Crabgrass plant response rating (0 to 10 scale)” value ([4]; Preemergence, Rate 125 g/ha) of the same molecule?
Its value is 7.

What about the “Crabgrass plant response rating” value [4, 25] of the same molecule?
The value was 8.

And the “Crabgrass plant response rating” value [4, 26]?
The value was 8.

And the “Crabgrass plant response rating” value [4, 22]?
The value was 2.

And the “Crabgrass plant response rating” value [4, 23]?
Its value is 5.

What about the “Plant response rating, Crabgrass” value [4, 24] of the same molecule?
The value was 8.

And the “Rice plant response rating” value [5, 17]?
Its value is 0.

And the “Rice plant response rating” value [5, 18]?
The value was 0.

What about the “Rice plant response rating” value [5, 19] of the same molecule?
Its value is 0.

What about the “Rice plant response rating” value [5, 20] of the same molecule?
The value was 0.

And the “Nutsedge plant response rating” value [6, 21]?
Its value is 0.

And the “Nutsedge plant response rating” value [6, 25]?
Its value is 0.

And the “Nutsedge plant response rating” value [6, 26]?
The value was 0.

And the “Nutsedge plant response rating” value [6, 22]?
Its value is 0.

And the “Nutsedge plant response rating” value [6, 23]?
Its value is 0.

And the “Plant response rating, Nutsedge” value [6, 24]?
The value was 0.

What about the “S. Flatsedge plant response rating” value [7, 17] of the same molecule?
The value was 0.

And the “S. Flatsedge plant response rating” value [7, 18]?
Its value is 0.

What about the “S. Flatsedge plant response rating” value [7, 19] of the same molecule?
Its value is 0.

What about the “S. Flatsedge plant response rating” value [7, 20] of the same molecule?
Its value is 0.

And the “Giant foxtail plant response rating” value [8, 21]?
The value was 9.

What about the “Giant foxtail plant response rating (0 to 10 scale)” value ([8]; Preemergence, Rate 125 g/ha) of the same molecule?
The value was 10.

What about the “Giant foxtail plant response rating” value [8, 25] of the same molecule?
Its value is 10.

And the “Giant foxtail plant response rating” value [8, 26]?
The value was 10.

And the “Giant foxtail plant response rating” value [8, 22]?
The value was 5.

And the “Giant foxtail plant response rating” value [8, 23]?
Its value is 5.

And the “Plant response rating, Giant foxtail” value [8, 24]?
The value was 8.

And the “Redroot pigweed plant response rating” value [9, 21]?
The value was 2.

What about the “Redroot pigweed plant response rating (0 to 10 scale)” value ([9]; Preemergence, Rate 125 g/ha) of the same molecule?
Its value is 7.

What about the “Redroot pigweed plant response rating” value [9, 25] of the same molecule?
Its value is 7.

What about the “Redroot pigweed plant response rating” value [9, 26] of the same molecule?
The value was 10.

And the “Redroot pigweed plant response rating” value [9, 22]?
The value was 0.

And the “Redroot pigweed plant response rating” value [9, 23]?
The value was 0.

And the “Plant response rating, Redroot pigweed” value [9, 24]?
The value was 3.

What about the “B. signalgrass plant response rating” value [10, 21] of the same molecule?
Its value is 5.

What about the “B. signalgrass plant response rating (0 to 10 scale, 0 is no effect, 10 is complete control)” value ([10]; Preemergence, Rate 125 g/ha) of the same molecule?
The value was 6.

What about the “B. signalgrass plant response rating” value [10, 25] of the same molecule?
Its value is 7.

And the “B. signalgrass plant response rating” value [10, 26]?
Its value is 8.

And the “B. signalgrass plant response rating” value [10, 22]?
Its value is 0.

And the “B. signalgrass plant response rating” value [10, 23]?
Its value is 1.

And the “Plant response rating, B. signalgrass” value [10, 24]?
Its value is 7.

And the “B. signalgrass plant response rating” value [10, 27]?
Its value is 8.

What about the “Wheat plant response rating” value [11, 21] of the same molecule?
Its value is 1.

What about the “Wheat plant response rating (0 to 10 scale)” value ([11]; Preemergence, Rate 125 g/ha) of the same molecule?
Its value is 2.

What about the “Wheat plant response rating” value [11, 25] of the same molecule?
Its value is 7.

What about the “Wheat plant response rating” value [11, 26] of the same molecule?
The value was 8.

And the “Wheat plant response rating” value [11, 22]?
Its value is 0.

What about the “Wheat plant response rating” value [11, 23] of the same molecule?
Its value is 1.

And the “Plant response rating, Wheat” value [11, 24]?
Its value is 5.

And the “Morningglory plant response rating” value [12, 21]?
The value was 0.

And the “Morningglory plant response rating (0 to 10 scale)” value ([12]; Preemergence, Rate 125 g/ha)?
Its value is 0.

And the “Morningglory plant response rating” value [12, 25]?
Its value is 0.

What about the “Morningglory plant response rating” value [12, 26] of the same molecule?
The value was 0.

What about the “Morningglory plant response rating” value [12, 22] of the same molecule?
Its value is 1.

And the “Morningglory plant response rating” value [12, 23]?
Its value is 3.

And the “Plant response rating, Morningglory” value [12, 24]?
Its value is 3.

What about the “Velvetleaf plant response rating” value [13, 21] of the same molecule?
The value was 1.

What about the “Velvetleaf plant response rating (0 to 10 scale)” value ([13]; Preemergence, Rate 125 g/ha) of the same molecule?
Its value is 6.

And the “Velvetleaf plant response rating” value [13, 25]?
Its value is 6.

And the “Velvetleaf plant response rating” value [13, 26]?
Its value is 8.

And the “Velvetleaf plant response rating” value [13, 22]?
The value was 0.

What about the “Velvetleaf plant response rating” value [13, 23] of the same molecule?
The value was 0.

What about the “Plant response rating, Velvetleaf” value [13, 24] of the same molecule?
Its value is 0.

And the “Wild oats plant response rating” value [14, 21]?
Its value is 5.

What about the “Wild oats plant response rating (0 to 10 scale)” value ([14]; Preemergence, Rate 125 g/ha) of the same molecule?
The value was 8.

What about the “Wild oats plant response rating” value [14, 25] of the same molecule?
Its value is 8.

And the “Wild oats plant response rating” value [14, 26]?
The value was 10.

What about the “Wild oats plant response rating” value [14, 22] of the same molecule?
The value was 0.

And the “Wild oats plant response rating” value [14, 23]?
The value was 0.

And the “Plant response rating, Wild oats” value [14, 24]?
Its value is 0.

What about the “Soybean plant response rating” value [15, 21] of the same molecule?
Its value is 0.

And the “Soybean plant response rating (0 to 10 scale)” value ([15]; Preemergence, Rate 125 g/ha)?
The value was 0.

And the “Soybean plant response rating” value [15, 25]?
Its value is 0.

And the “Soybean plant response rating” value [15, 26]?
The value was 4.

And the “Soybean plant response rating” value [15, 22]?
Its value is 3.

What about the “Soybean plant response rating” value [15, 23] of the same molecule?
Its value is 4.

What about the “Plant response rating, Soybean” value [15, 24] of the same molecule?
The value was 6.

And the “Corn plant response rating” value [16, 21]?
The value was 0.

What about the “Corn plant response rating (0 to 10 scale)” value ([16]; Preemergence, Rate 125 g/ha) of the same molecule?
The value was 2.

What about the “Corn plant response rating” value [16, 26] of the same molecule?
The value was 5.

What about the “Corn plant response rating” value [16, 22] of the same molecule?
Its value is 0.

And the “Corn plant response rating” value [16, 23]?
The value was 0.

And the “Plant response rating, Corn” value [16, 24]?
The value was 2.

And the “Corn plant response rating” value [16, 27]?
The value was 3.
